Assay results taken from patent US20260049072A1, “HETEROCYCLIC COMPOUND FOR INDUCING DEGRADATION OF MUTANT KRAS PROTEIN” (Astellas Pharma Inc., priority 2022, published 2026).

Experiments:
AsPC-1 cells = assay: Non-anchorage-dependent cell growth inhibition (spheroid 3D culture), AsPC-1; assay type: cell-based; details: Homo sapiens, ASPC1, 144 h; KRAS G12D mutant-positive, 3D spheroid, six days, CellTiter-Glo 2.0; read-out: AsPC-1 IC50
Description: Test Example 3: Evaluation of Non-Anchorage-Dependent Cell Growth Inhibitory Activity on Human KRAS G12V Mutant-Positive Pancreatic Cancer Line PA-TU-8902, Human KRAS G12D Mutant-Positive Pancreatic Cancer Line AsPC-1 or Human KRAS G12C Mutant-Positive Pancreatic Cancer Line MIA PaCa-2
The non-anchorage-dependent cell growth inhibitory activities of subject compounds were evaluated by spheroid 3D cell culture.
PA-TU-8902 cells, AsPC-1 cells or MIA PaCa-2 cells (RIKEN BRC, RCB2094) were seeded at 36 µL/well on a low-cell-adhesive round bottom 384-well plate (Prime Surface: from Sumitomo Bakelite) to give 5×10^2 cells per well. The PA-TU-8902 cells were under the same conditions as in Test Example 1-1, and the AsPC-1 cells were under the same conditions as in Test Example 1-2. For the MIA PaCa-2 cells, RPMI-1640 medium containing 10% fetal bovine serum was used in the presence of 5% CO2 at 37° C.
The next day, the subject compounds (6-9 points having final concentrations in the range of 3 μM to 0.3 nM) and DMSO, which was the solvent for the subject compounds, as a negative control were diluted 100-fold with a fresh medium and were each added at 4 μL per well. After culturing in the presence of 5% CO2 at 37° C. for six days, CellTiter-Glo 2.0 (from Promega) was added at 20 μL per well. After stirring with a plate mixer (from FINEPCR) at normal temperature for an hour, the luminescent signals were measured with ARVO X3 (from PerkinElmer).
With the signaling value in treatment with DMSO taken as 0% inhibition and with the signaling value in the medium alone without cells taken as 100% inhibition, the 50% inhibition values (IC50) were calculated by Sigmoid-Emax model nonlinear regression analysis.

RAS G12D = molecular target: T1, RAS G12D (Homo sapiens, UniProt P01116, G12D); assay: RAS G12D degradation activity, Cell ELISA, AsPC-1; assay type: cell-based; details: AsPC-1 cells, 24 hours; read-out: DC50 (RAS G12D 50% degradation value)
T1 construct: host or cells: AsPC-1 human pancreatic cancer cells
Description: Test Example 1-2: Evaluation of RAS G12D Degradation Activity on Human KRAS G12D Mutant-Positive Pancreatic Cancer Line AsPC-1
The RAS G12D degradation activities of subject compounds were evaluated in the same manner as in Test Example 1-1 by measuring the expression levels of RAS G12D by a Cell ELISA method.
AsPC-1 cells (ATCC, CRL-1682) were seeded at 36 μL per well on a 384-well plate to give 2.0×10^4 cells per well. As for the cell culture conditions, RPMI-1640 medium (from Sigma-Aldrich) containing 10% fetal bovine serum was used in the presence of 5% CO2 at 37° C.
The next day, the subject compounds (10 points having final concentrations in the range of 3 μM to 0.1 nM) and DMSO, which was the solvent for the subject compounds, as a negative control were diluted 100-fold with a fresh medium and were each added at 4 μL per well, followed by culturing for 24 hours.
The next day, the procedures from the immobilization of the cells to before the addition of the blocking solution were performed by the same methods as in Test Example 1-1. A blocking solution (Intercept Blocking Buffer; from LI-COR Biosciences) was added at 20 μL per well. After allowing the plate to stand for 30 minutes at room temperature, the supernatant was removed by centrifugation. A solution obtained by diluting an anti-R-actin antibody (1,000-fold dilution) with the blocking solution was added to the wells of the positive control as a primary antibody, and a solution obtained by diluting an anti-Ras (G12D Mutant Specific) antibody (Ras (G12D Mutant Specific) (D8H7) Rabbit mAb; from Cell Signaling Technology; 1,000-fold dilution) and an anti-3-actin antibody (1,000-fold dilution) with the blocking solution was added to the other wells as primary antibodies, each at 15 μL per well. The plate was allowed to stand overnight at 4° C.
The next day, the supernatant was removed by centrifugation, and the plate was washed with PBS. The supernatant was removed by centrifugation, and a solution obtained by diluting an anti-rabbit IgG antibody and an anti-mouse IgG antibody 1,000-fold with the blocking solution was added at 15 μL per well as secondary antibodies. After allowing the plate to stand at room temperature for an hour, the supernatant was removed by centrifugation, and the plate was washed with PBS. After removing the supernatant, the plate was dried as it was with air at room temperature for two hours or more, and the 700-nm and 800-nm fluorescent signals were measured with Aerius.
With the RAS G12D signaling value at the time of addition of DMSO corrected with the signaling value of β-actin taken as 0% and with the RAS G12D signaling value under the conditions of staining with the anti-β-actin antibody alone taken as 100%, the RAS G12D degradation rates were calculated. The 50% degradation values (DC50) were calculated by Sigmoid-Emax model nonlinear regression analysis.

T1 sequence (P01116 1-188 isoform P01116-2 G12D): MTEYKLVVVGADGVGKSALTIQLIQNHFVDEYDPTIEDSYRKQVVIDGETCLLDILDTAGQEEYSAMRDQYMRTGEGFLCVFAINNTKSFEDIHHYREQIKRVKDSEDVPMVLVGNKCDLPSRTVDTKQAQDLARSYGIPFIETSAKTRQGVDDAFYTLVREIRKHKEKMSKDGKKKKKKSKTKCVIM

Row | IC50 (AsPC-1 cells) | DC50 (RAS G12D) | Compound
1 | 17 nM | 3 nM | CO[C@@H](C)COc1cc(OC2CN(C(=O)NCCN(C)C)C2)c2cc(C3CC3)c(-c3c(C)c(F)cc4[nH]ncc34)c(OCc3ccc(-c4cn([C@H](C(=O)N5C[C@H](O)C[C@H]5C(=O)N[C@@H](CO)c5ccc(-n6cncn6)cc5)C(C)C)nn4)cc3)c2n1 (atropisomer, axis not shown; (M)) [Example 12, (4R)-1-[(2S)-2-(4-{4-[({(7M)-6-cyclopropyl-4-[(1-{[2-(dimethylamino)ethyl]carbamoyl}azetidin-3-yl)oxy]-7-(6-fluoro-5-methyl-1H-indazol-4-yl)-2-[(2S)-2-methoxypropoxy]quinolin-8-yl}oxy)methyl]phenyl}-1H-1,2,3-triazol-1-yl)-3-methylbutanoyl]-4-hydroxy-N-{(1R)-2-hydroxy-1-[4-(1H-1,2,4-triazol-1-yl)phenyl]ethyl}-L-prolinamide]
2 | 9 nM | 1 nM | CO[C@@H](C)COc1nc(N[C@H]2C[C@H](OCCN(C)C)C2)c2cc(C3CC3)c(-c3c(C)c(F)cc4[nH]ncc34)c(OCc3ccc(-c4cn([C@H](C(=O)N5C[C@H](O)C[C@H]5C(=O)N[C@@H](CO)c5ccc(-c6scnc6C)cc5)C(C)C)nn4)cc3)c2n1 (atropisomer, axis not shown) [Example 23]
